Counter-ions that a name gives are not always drawn.
Target: T1, HiBiT tagged PARP14 (Homo sapiens, UniProt Q460N5)
T1 construct: engineered to contain a HiBiT tag on both alleles of the PARP14 gene; endogenous in cells; host or cells: Jurkat cells stably transfected with LgBiT (Promega), PARP14 locus edited by CRISPR/Cas9
Assay: HiBiT assay for the degradation of PARP14 (HiBiT tagged PARP14 in LgBiT expressing Jurkat cells, 2 or 24 hours)
Type: cell-based
Settings: Assay B (Example B): HiBiT tagged PARP14 degradation in LgBiT expressing Jurkat cells, read-out: DC50
Method in brief: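 Luminescence from HiBiT–LgBiT complementation served as proxy for endogenous PARP14 level in edited LgBiT Jurkat cells (5,000/well). After 2 or 24 h compound exposure at 37 °C, signal read with Live Cell Substrate, expressed as % of 0.1% DMSO control, and fitted (4-parameter, free Hill) for DC50.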

T1 sequence (Q460N5 whole entry): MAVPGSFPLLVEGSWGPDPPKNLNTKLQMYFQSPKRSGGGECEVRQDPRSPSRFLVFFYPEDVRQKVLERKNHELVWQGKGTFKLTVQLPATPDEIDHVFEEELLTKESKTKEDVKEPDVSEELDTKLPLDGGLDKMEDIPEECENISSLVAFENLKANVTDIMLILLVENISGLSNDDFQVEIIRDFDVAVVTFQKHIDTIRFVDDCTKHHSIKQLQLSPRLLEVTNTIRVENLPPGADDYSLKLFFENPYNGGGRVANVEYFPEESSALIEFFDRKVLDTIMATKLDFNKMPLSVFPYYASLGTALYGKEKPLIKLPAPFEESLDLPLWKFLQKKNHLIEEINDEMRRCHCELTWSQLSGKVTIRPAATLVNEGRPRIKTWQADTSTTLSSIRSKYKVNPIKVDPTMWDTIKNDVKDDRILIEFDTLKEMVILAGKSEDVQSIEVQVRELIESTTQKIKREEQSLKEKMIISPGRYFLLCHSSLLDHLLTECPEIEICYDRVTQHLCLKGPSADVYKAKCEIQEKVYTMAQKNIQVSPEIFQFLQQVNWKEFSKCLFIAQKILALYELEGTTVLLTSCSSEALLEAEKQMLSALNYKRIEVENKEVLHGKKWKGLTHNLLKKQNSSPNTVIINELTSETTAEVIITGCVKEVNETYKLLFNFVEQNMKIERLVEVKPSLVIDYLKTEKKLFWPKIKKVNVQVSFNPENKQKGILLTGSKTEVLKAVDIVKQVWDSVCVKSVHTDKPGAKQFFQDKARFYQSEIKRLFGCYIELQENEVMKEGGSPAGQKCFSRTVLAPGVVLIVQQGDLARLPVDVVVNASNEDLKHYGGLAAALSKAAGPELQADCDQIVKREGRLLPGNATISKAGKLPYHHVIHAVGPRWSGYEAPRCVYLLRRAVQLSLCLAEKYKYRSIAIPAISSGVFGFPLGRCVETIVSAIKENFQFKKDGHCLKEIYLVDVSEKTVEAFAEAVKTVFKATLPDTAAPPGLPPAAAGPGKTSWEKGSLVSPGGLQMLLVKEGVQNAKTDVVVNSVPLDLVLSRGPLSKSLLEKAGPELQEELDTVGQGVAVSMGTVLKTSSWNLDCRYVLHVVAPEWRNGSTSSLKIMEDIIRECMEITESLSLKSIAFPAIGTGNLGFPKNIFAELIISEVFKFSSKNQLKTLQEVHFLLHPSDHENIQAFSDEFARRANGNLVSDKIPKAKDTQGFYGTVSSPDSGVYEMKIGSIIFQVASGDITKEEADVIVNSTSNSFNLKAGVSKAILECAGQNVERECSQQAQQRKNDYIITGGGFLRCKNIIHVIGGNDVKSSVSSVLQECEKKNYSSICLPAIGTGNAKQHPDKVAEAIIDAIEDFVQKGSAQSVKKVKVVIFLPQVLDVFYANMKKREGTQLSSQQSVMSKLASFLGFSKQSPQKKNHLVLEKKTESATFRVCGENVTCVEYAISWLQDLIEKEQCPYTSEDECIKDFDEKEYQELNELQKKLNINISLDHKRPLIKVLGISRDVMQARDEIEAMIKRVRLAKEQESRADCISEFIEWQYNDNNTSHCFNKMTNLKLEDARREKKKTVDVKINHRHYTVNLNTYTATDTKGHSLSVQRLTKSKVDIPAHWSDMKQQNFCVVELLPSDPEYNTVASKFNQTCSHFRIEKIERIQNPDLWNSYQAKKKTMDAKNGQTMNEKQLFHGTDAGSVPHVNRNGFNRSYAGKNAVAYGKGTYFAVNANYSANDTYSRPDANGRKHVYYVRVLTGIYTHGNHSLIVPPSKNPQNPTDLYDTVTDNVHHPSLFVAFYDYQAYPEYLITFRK

## O=C1CCC(Nc2ccc(N3CCC(C(=O)N4CCC(COc5cc(F)c6c(=O)[nH]c(CSC7CCOCC7)nc6c5)CC4)CC3)c(F)c2)C(=O)N1 (stereo not shown) [Example 153, 3-((3-fluoro-4-(4-(4-(((5-fluoro-4-oxo-2-(((tetrahydro-2H-pyran-4-yl)thio)methyl)-3,4-dihydroquinazolin-7-yl)oxy)methyl)piperidine-1-carbonyl)piperidin-1-yl)phenyl)amino)piperidine-2,6-dione]
  DC50: < 30 nM

## O=C1CCC(Nc2ccc(N3CCN(C(=O)N4CCC(COc5cc(F)c6c(=O)[nH]c(CSC7CCOCC7)nc6c5)CC4)CC3)c(F)c2)C(=O)N1 (stereo not shown) [Example 154, 3-((3-fluoro-4-(4-(4-(((5-fluoro-4-oxo-2-(((tetrahydro-2H-pyran-4-yl)thio)methyl)-3,4-dihydroquinazolin-7-yl)oxy)methyl)piperidine-1-carbonyl)piperazin-1-yl)phenyl)amino)piperidine-2,6-dione]
  DC50: < 30 nM

## Cn1nc(N2CCC(=O)NC2=O)c2ccc(N3CCC(N4CCC(COc5cc(F)c6c(=O)[nH]c(CSC7CCOCC7)nc6c5)CC4)CC3)cc21 [Example 155, 1-(6-(4-(((5-fluoro-4-oxo-2-(((tetrahydro-2H-pyran-4-yl)thio)methyl)-3,4-dihydroquinazolin-7-yl)oxy)methyl)-[1,4′-bipiperidin]-1′-yl)-1-methyl-1H-indazol-3-yl)dihydropyrimidine-2,4(1H,3H)-dione]
  DC50: < 30 nM

## Cn1nc(C2CCC(=O)NC2=O)c2ccc(N3CCC(N4CC(N5CCC(COc6cc(F)c7c(=O)[nH]c(CSC8CCOCC8)nc7c6)CC5)C4)CC3)cc21 (stereo not shown) [Example 156, 3-(6-(4-(3-(4-(((5-fluoro-4-oxo-2-(((tetrahydro-2H-pyran-4-yl)thio)methyl)-3,4-dihydroquinazolin-7-yl)oxy)methyl)piperidin-1-yl)azetidin-1-yl)piperidin-1-yl)-1-methyl-1H-indazol-3-yl)piperidine-2,6-dione]
  DC50: < 30 nM

## O=C1CCN(c2ccc(N3CCC(N4CC(N5CCC(COc6cc(F)c7c(=O)[nH]c(CSC8CCOCC8)nc7c6)CC5)C4)CC3)c(F)c2)C(=O)N1 [Example 157, 1-(3-fluoro-4-(4-(3-(4-(((5-fluoro-4-oxo-2-(((tetrahydro-2H-pyran-4-yl)thio)methyl)-3,4-dihydroquinazolin-7-yl)oxy)methyl)piperidin-1-yl)azetidin-1-yl)piperidin-1-yl)phenyl)dihydropyrimidine-2,4(1H,3H)-dione]
  DC50: < 30 nM

## O=C1CCN(c2ccc(N3CCC(N4CCC(COc5cc(F)c6c(=O)[nH]c(CSC7CCOCC7)nc6c5)CC4)CC3)c(F)c2)C(=O)N1 [Example 158, 1-(3-fluoro-4-(4-(((5-fluoro-4-oxo-2-(((tetrahydro-2H-pyran-4-yl)thio)methyl)-3,4-dihydroquinazolin-7-yl)oxy)methyl)-[1,4′-bipiperidin]-1′-yl)phenyl)dihydropyrimidine-2,4(1H,3H)-dione formate]
  DC50: < 30 nM

## Cn1nc(N2CCC(=O)NC2=O)c2ccc(N3CCC(N4CCC(COc5cc(F)c6c(=O)[nH]c(COC7CCOCC7)nc6c5)CC4)CC3)c(F)c21 [Example 159, 1-(7-fluoro-6-(4-(((5-fluoro-4-oxo-2-(((tetrahydro-2H-pyran-4-yl)oxy)methyl)-3,4-dihydroquinazolin-7-yl)oxy)methyl)-[1,4′-bipiperidin]-1′-yl)-1-methyl-1H-indazol-3-yl)dihydropyrimidine-2,4(1H,3H)-dione formate]
  DC50: < 30 nM

## Cn1nc(N2CCC(=O)NC2=O)c2cc(F)c(N3CCC(N4CCC(COc5cc(F)c6c(=O)[nH]c(COC7CCOCC7)nc6c5)CC4)CC3)cc21 [Example 160, 1-(5-fluoro-6-(4-(((5-fluoro-4-oxo-2-(((tetrahydro-2H-pyran-4-yl)oxy)methyl)-3,4-dihydroquinazolin-7-yl)oxy)methyl)-[1,4′-bipiperidin]-1′-yl)-1-methyl-1H-indazol-3-yl)dihydropyrimidine-2,4(1H,3H)-dione]
  DC50: < 30 nM

## Cn1nc(N2CCC(=O)NC2=O)c2ccc(N3CCC(N4CC(N5CCC(COc6cc(F)c7c(=O)[nH]c(CSC8CCOCC8)nc7c6)CC5)C4)CC3)cc21 [Example 161, 1-(6-(4-(3-(4-(((5-fluoro-4-oxo-2-(((tetrahydro-2H-pyran-4-yl)thio)methyl)-3,4-dihydroquinazolin-7-yl)oxy)methyl)piperidin-1-yl)azetidin-1-yl)piperidin-1-yl)-1-methyl-1H-indazol-3-yl)dihydropyrimidine-2,4(1H,3H)-dione]
  DC50: < 30 nM

## O=C1CCN(c2cncc3c(N4CCC(N5CCC(COc6cc(F)c7c(=O)[nH]c(CSC8CCOCC8)nc7c6)CC5)CC4)cccc23)C(=O)N1 [Example 162, 1-(8-(4-(((5-fluoro-4-oxo-2-(((tetrahydro-2H-pyran-4-yl)thio)methyl)-3,4-dihydroquinazolin-7-yl)oxy)methyl)-[1,4′-bipiperidin]-1′-yl)isoquinolin-4-yl)dihydropyrimidine-2,4(1H,3H)-dione]
  DC50: < 30 nM

## Cn1nc(N2CCC(=O)NC2=O)c2cc(F)c(N3CCC(N4CCC(COc5cc(F)c6c(=O)[nH]c(CSC7CCOCC7)nc6c5)CC4)CC3)cc21 [Example 163, 1-(5-fluoro-6-(4-(((5-fluoro-4-oxo-2-(((tetrahydro-2H-pyran-4-yl)thio)methyl)-3,4-dihydroquinazolin-7-yl)oxy)methyl)-[1,4′-bipiperidin]-1′-yl)-1-methyl-1H-indazol-3-yl)dihydropyrimidine-2,4(1H,3H)-dione]
  DC50: < 30 nM

## Cn1nc(N2CCC(=O)NC2=O)c2cc(F)c(N3CCC(N4CC(N5CCC(COc6cc(F)c7c(=O)[nH]c(CSC8CCOCC8)nc7c6)CC5)C4)CC3)cc21 [Example 164, 1-(5-fluoro-6-(4-(3-(4-(((5-fluoro-4-oxo-2-(((tetrahydro-2H-pyran-4-yl)thio)methyl)-3,4-dihydroquinazolin-7-yl)oxy)methyl)piperidin-1-yl)azetidin-1-yl)piperidin-1-yl)-1-methyl-1H-indazol-3-yl)dihydropyrimidine-2,4(1H,3H)-dione]
  DC50: < 30 nM

## O=C1CCN(c2ccc(F)c(N3CCC(N4CC(N5CCC(COc6cc(F)c7c(=O)[nH]c(CSC8CCOCC8)nc7c6)CC5)C4)CC3)c2)C(=O)N1 [Example 165, 1-(4-fluoro-3-(4-(3-(4-(((5-fluoro-4-oxo-2-(((tetrahydro-2H-pyran-4-yl)thio)methyl)-3,4-dihydroquinazolin-7-yl)oxy)methyl)piperidin-1-yl)azetidin-1-yl)piperidin-1-yl)phenyl)dihydropyrimidine-2,4(1H,3H)-dione]
  DC50: < 30 nM

## COc1cc(N2CCC(N3CC(N4CCC(COc5cc(F)c6c(=O)[nH]c(CSC7CCOCC7)nc6c5)CC4)C3)CC2)c(F)cc1N1CCC(=O)NC1=O [Example 166, 1-(5-fluoro-4-(4-(3-(4-(((5-fluoro-4-oxo-2-(((tetrahydro-2H-pyran-4-yl)thio)methyl)-3,4-dihydroquinazolin-7-yl)oxy)methyl)piperidin-1-yl)azetidin-1-yl)piperidin-1-yl)-2-methoxyphenyl)dihydropyrimidine-2,4(1H,3H)-dione]
  DC50: < 30 nM

## O=C1CCN(c2cnc3cc(N4CCC(N5CC(N6CCC(COc7cc(F)c8c(=O)[nH]c(CSC9CCOCC9)nc8c7)CC6)C5)CC4)ccn23)C(=O)N1 [Example 167, 1-(7-(4-(3-(4-(((5-fluoro-4-oxo-2-(((tetrahydro-2H-pyran-4-yl)thio)methyl)-3,4-dihydroquinazolin-7-yl)oxy)methyl)piperidin-1-yl)azetidin-1-yl)piperidin-1-yl)imidazo[1,2-a]pyridin-3-yl)dihydropyrimidine-2,4(1H,3H)-dione]
  DC50: < 30 nM

## O=C1CCN(c2cnc3cc(N4CCC(N5CC(N6CCC(COc7cc(F)c8c(=O)[nH]c(COC9CCOCC9)nc8c7)CC6)C5)CC4)ccn23)C(=O)N1 [Example 168, 1-(7-(4-(3-(4-(((5-fluoro-4-oxo-2-(((tetrahydro-2H-pyran-4-yl)oxy)methyl)-3,4-dihydroquinazolin-7-yl)oxy)methyl)piperidin-1-yl)azetidin-1-yl)piperidin-1-yl)imidazo[1,2-a]pyridin-3-yl)dihydropyrimidine-2,4(1H,3H)-dione]
  DC50: < 30 nM

## O=C1CCC(N2C(=O)c3cccc4c(N5CCC(N6CC(N7CCC(COc8cc(F)c9c(=O)[nH]c(CSC%10CCOCC%10)nc9c8)CC7)C6)CC5)ccc2c34)C(=O)N1 (stereo not shown) [Example 169, 3-(6-(4-(3-(4-(((5-fluoro-4-oxo-2-(((tetrahydro-2H-pyran-4-yl)thio)methyl)-3,4-dihydroquinazolin-7-yl)oxy)methyl)piperidin-1-yl)azetidin-1-yl)piperidin-1-yl)-2-oxobenzo[cd]indol-1(2H)-yl)piperidine-2,6-dione]
  DC50: < 30 nM

## O=C1CCC(Nc2ccc(N3CCC(O)(CC(=O)N4CCC(COc5cc(F)c6c(=O)[nH]c(CSC7CCOCC7)nc6c5)CC4)CC3)cc2F)C(=O)N1 (stereo not shown) [Example 170, 3-((2-fluoro-4-(4-(2-(4-(((5-fluoro-4-oxo-2-(((tetrahydro-2H-pyran-4-yl)thio)methyl)-3,4-dihydroquinazolin-7-yl)oxy)methyl)piperidin-1-yl)-2-oxoethyl)-4-hydroxypiperidin-1-yl)phenyl)amino)piperidine-2,6-dione]
  DC50: < 30 nM

## O=C1CCC(Nc2ccc(N3CCC(N4CC(C(=O)N5CCC(COc6cc(F)c7c(=O)[nH]c(CSC8CCOCC8)nc7c6)CC5)C4)CC3)c(F)c2)C(=O)N1 (stereo not shown) [Example 171, 3-((3-fluoro-4-(4-(3-(4-(((5-fluoro-4-oxo-2-(((tetrahydro-2H-pyran-4-yl)thio)methyl)-3,4-dihydroquinazolin-7-yl)oxy)methyl)piperidine-1-carbonyl)azetidin-1-yl)piperidin-1-yl)phenyl)amino)piperidine-2,6-dione]
  DC50: < 30 nM

From patent US20240101540A1, “TARGETED PROTEIN DEGRADATION OF PARP14 FOR USE IN THERAPY” (Ribon Therapeutics, Inc., priority 2022, published 2024)
